Source: patent publication US20250074892A1, “CARBONYL BRIDGED HETEROCYCLIC COMPOUND, AND COMPOSITION AND APPLICATION THEREOF” (BEIJING SCITECH-MQ PHARMACEUTICALS LIMITED, priority 2022, published 2025)
Like-named read-outs stand apart in the source and are kept apart here.

Assay: Mouse PK&BBB (pharmacokinetics and brain penetration)
Format: in vivo, CD-1 mice
Method: In this assay, the pharmacokinetic characteristics and ability to penetrate the blood-brain barrier of the compounds of the present application were assayed after administration of some of the compounds of the present application to SD rats, CD-1 mice or beagle dogs by single oral administration and intravenous injection.
(§1) 1. Intravenous (IV) injection group: an appropriate amount of the assay compound was weighed, and completely dissolved in an appropriate volume of vehicle. The mixture was stirred, vortexed and/or sonicated. Once a solution was obtained, the vehicle was gradually added to a final volume to reach the target concentration. The solution was vortexed, and sonicated to obtain a homogeneous solution. The solution was filtered through a 0.22 m PVDF membrane.
as §1, with “2. Oral (PO)” for “1. Intravenous (IV) injection”, “solution.” for “solution. The solution was filtered through a 0.22 m PVDF membrane.”
Meanwhile, the IV group was not fasted and the PO group was fasted overnight (>12 hrs) and given food 2 hrs after drug administration. All animals had free access to water. The dosing regimen and pharmacokinetic sampling regimen are given in Table 10 and Table 11 below, respectively.
Mice were administered according to the above protocol, and blood and brain tissue samples were collected and processed at predetermined time points (collection and processing were performed according to conventional methods in the art).
The brain was weighed and homogenized by adding 4 times of ultrapure water. Six times volume of acetonitrile was added respectively to the whole blood samples and brain homogenate (20 times volume of acetonitrile was added to the whole blood sample of mouse PK). The mixture was vortexed for 1 min and then centrifuged at 4° C., 4500 rpm for 15 min. According to the instrument response, the supernatant was diluted with diluent and the sample was analyzed by LC/MS.
Pharmacokinetic parameters were calculated using WinNonlin software. The following pharmacokinetic parameters were calculated if appropriate plasma/whole blood drug concentration-time data were available: CL (clearance); Vd (apparent volume of distribution); T1/2 (elimination half-life time); Cmax (peak concentration); Tmax (time to peak); AUC (area under plasma drug concentration-time curve); MRT (mean retention time); F % (bioavailability).

[1] = CD-1, mouse, whole blood, iv, 2 mg/kg, IV 2 mg/kg, read-out: Blood drug concentration
[2] = CD-1, mouse, whole blood, po, 20 mg/kg, PO 20 mg/kg, read-out: Blood drug concentration

- Kp at 2 h (CD-1, brain / whole blood, PO 20 mg/kg, 2 h after administration, read-out: Brain/blood ratio): 1.85
- concentration at 2 h (CD-1, mouse, brain, po, 20 mg/kg, PO 20 mg/kg, 2 h after administration, read-out: Brain concentration): 244 ng/g
- concentration at 0 h [1]: 0 ng/mL
- concentration at 0.083 h (CD-1, mouse, whole blood, iv, 2 mg/kg, IV 2 mg/kg, 0.083 hr, read-out: Blood drug concentration): 632 ± 86 ng/mL
- concentration at 0.25 h [1]: 323 ± 81 ng/mL
- concentration at 0.5 h [1]: 150 ± 53 ng/mL
- concentration at 1 h [1]: 60.7 ± 28.5 ng/mL
- concentration at 2 h (CD-1, mouse, whole blood, iv, 2 mg/kg, IV 2 mg/kg, 2 hr, read-out: Blood drug concentration): 12.3 ± 8.4 ng/mL
- concentration at 4 h [1]: 1.77 ± 1.12 ng/mL
- concentration at 7 hr [1]: 0.854 ng/mL
- concentration at 0 h [2]: 0 ng/mL
- concentration at 0.25 h [2]: 284 ± 26 ng/mL
- concentration at 0.5 h [2]: 405 ± 46 ng/mL
- concentration at 1 h [2]: 399 ± 77 ng/mL
- concentration at 2 h (CD-1, mouse, whole blood, po, 20 mg/kg, PO 20 mg/kg, 2 hr, read-out: Blood drug concentration): 163 ± 2 ng/mL
- concentration at 4 h [2]: 34.9 ± 19 ng/mL
- concentration at 7 hr [2]: 4.85 ± 3.83 ng/mL
- concentration at 2 h (CD-1, mouse, whole blood, po, 20 mg/kg, PO 20 mg/kg, whole blood, 2 h after administration, read-out: Blood drug concentration): 132 ng/mL
- AUC(0-inf) (CD-1, whole blood, IV 2 mg/kg): 308 ± 82 ng·h/mL
- AUC(0-t) (CD-1, whole blood, IV 2 mg/kg): 307 ± 82 ng·h/mL
- Vd (CD-1, whole blood, IV 2 mg/kg): 6.97 ± 1.13 L/kg
- half-life (CD-1, whole blood, IV 2 mg/kg): 45.3 ± 17.9 min
- clearance (CD-1, whole blood, IV 2 mg/kg, read-out: Cl—obs): 114 ± 30.5 mL/min/kg
- AUC(0-inf) (CD-1, whole blood, PO 20 mg/kg): 869 ± 57 ng·h/mL
- AUC(0-t) (CD-1, whole blood, PO 20 mg/kg): 861 ± 54 ng·h/mL
- Cmax (CD-1, whole blood, PO 20 mg/kg): 421 ± 64 ng/mL
- Tmax (CD-1, whole blood, PO 20 mg/kg): 50 ± 17.3 min
- half-life (CD-1, whole blood, PO 20 mg/kg): 58 ± 12.5 min
- bioavailability (CD-1, whole blood, PO 20 mg/kg vs IV 2 mg/kg): 28.2 ± 1.9%
SMILES: O=C(C1CCN(c2cc(-c3cc(OCCCO)ccc3F)ccn2)CC1)N1N=CC[C@H]1c1cc(F)cc(F)c1 (racemic) [Example 40]
